In general, AUC refers to the area under the concentration-time curve, a measure of exposure. One may read the bioavailability as dose-corrected exposure relative to a reference, in per cent. By ED50 is commonly meant the dose at which the effect has come halfway, by size or by number of responders. Usually EC50 stands for the concentration needed to bring the measured effect to its halfway point. As usually defined, the IC50 is the midpoint of a concentration-inhibition curve. In general, half-life refers to the time in which the quantity being followed falls by half.

Data set [1] can be described thus: Area under curve determined in dogs after intravenous administration of 3 mg/kg. The note with it: dog, in vivo. It counts as ADME, organism-based, Canis lupus familiaris. More on the design: dose 3 mg/kg, route intravenous.
Data set [2] can be described thus: Oral bioavailability in dog. It counts as ADME, organism-based, Canis lupus familiaris. The note with it: in vivo.
A further data set concerns Monkey. The experiment in a line: Effective dose for hyperglycerolemia producing increase in serum glycerol accompained by tachycardia in anesthetized rhesus monkeys. The class given is functional. The note with it: Cercopithecidae, in Macaca mulatta.
In data set [3] the target is T1, Beta-2 adrenergic receptor (Homo sapiens, UniProt P07550). The experiment in a line: In vitro functional efficacy in stimulating increase in cAMP in chinese hamster ovary (CHO) cells expressing the cloned human beta-2 receptor. The class given is cell-based.
Target sequence in this assay (P07550 whole entry): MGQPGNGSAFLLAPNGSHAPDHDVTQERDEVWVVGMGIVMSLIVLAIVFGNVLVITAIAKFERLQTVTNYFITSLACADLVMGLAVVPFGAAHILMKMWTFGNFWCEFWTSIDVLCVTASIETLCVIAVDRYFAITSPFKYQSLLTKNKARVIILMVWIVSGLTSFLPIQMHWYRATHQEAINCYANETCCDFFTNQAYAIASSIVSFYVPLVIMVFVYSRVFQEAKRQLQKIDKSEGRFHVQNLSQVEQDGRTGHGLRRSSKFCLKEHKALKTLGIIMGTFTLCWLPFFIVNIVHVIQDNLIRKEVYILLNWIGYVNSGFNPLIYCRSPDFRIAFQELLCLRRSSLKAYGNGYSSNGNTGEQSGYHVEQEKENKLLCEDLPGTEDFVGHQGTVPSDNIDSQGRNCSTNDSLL
For data set [4], the target named is T2, Beta-3 adrenergic receptor (Homo sapiens, UniProt P13945). The data set is described as follows: In vitro functional efficacy as increased cAMP in chinese hamster ovary (CHO) cells expressing human beta-3 receptor. The class given is cell-based.
Target sequence in this assay (P13945 whole entry): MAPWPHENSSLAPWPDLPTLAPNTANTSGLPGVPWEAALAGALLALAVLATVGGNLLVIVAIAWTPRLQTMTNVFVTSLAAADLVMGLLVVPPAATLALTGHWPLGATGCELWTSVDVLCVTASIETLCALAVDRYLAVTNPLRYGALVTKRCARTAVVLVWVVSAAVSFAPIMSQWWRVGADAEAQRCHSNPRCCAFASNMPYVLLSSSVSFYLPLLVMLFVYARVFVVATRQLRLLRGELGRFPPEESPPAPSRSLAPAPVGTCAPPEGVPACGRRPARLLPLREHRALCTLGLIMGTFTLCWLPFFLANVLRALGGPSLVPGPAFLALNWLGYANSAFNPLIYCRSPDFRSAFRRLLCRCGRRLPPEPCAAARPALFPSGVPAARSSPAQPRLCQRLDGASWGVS
Data set [5] is described as follows: Area under curve determined in dogs after oral administration of 10 mg/kg. The class given is ADME, organism-based, Canis lupus familiaris. Particulars: dog, in vivo. More on the design: dose 10 mg/kg, route oral.
Data set [6] concerns the target T3, Beta-1 adrenergic receptor (Homo sapiens, UniProt P08588). The experiment in a line: In vitro functional efficacy in stimulating increase in cAMP in chinese hamster ovary (CHO) cells expressing the cloned human beta-1 receptor. The class given is cell-based.
Target sequence in this assay (P08588 whole entry): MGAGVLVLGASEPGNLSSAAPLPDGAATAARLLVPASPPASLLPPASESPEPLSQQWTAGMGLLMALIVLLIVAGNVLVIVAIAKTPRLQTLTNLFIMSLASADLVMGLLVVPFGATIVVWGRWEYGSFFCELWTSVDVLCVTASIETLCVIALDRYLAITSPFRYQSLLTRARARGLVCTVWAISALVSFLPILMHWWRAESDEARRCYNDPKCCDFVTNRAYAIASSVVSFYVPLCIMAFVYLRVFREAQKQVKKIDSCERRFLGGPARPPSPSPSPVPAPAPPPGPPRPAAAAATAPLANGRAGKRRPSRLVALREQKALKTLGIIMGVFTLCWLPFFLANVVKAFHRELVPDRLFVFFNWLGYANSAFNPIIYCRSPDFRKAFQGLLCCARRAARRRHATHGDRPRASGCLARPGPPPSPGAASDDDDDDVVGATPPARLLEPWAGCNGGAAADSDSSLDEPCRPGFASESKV
Data set [7] in a line: Plasma clearance was measured in dog. Particulars: read-out: Clp. It counts as ADME, organism-based, Canis lupus familiaris.
Data set [8] addresses T1, Beta-2 adrenergic receptor. The data set is described as follows: biochemical.
Target sequence in this assay (P07550 whole entry): as the sequence (P07550 whole entry) above
Description: Binding affinity was evaluated on chinese hamster ovary (CHO) cells expressing the cloned human beta-2 adrenergic receptor in the presence of [125I]- iodocyanopindolol.
A short description of data set [9]: Half life was measured in dog. The class given is ADME, organism-based, Canis lupus familiaris. The note with it: in vivo.
For data set [10], the target named is T1, Beta-2 adrenergic receptor. The data set is described as follows: Agonistic efficacy at human beta 2 adrenergic receptor was assessed from adenylyl cyclase activation given as % of the maximum stimulation with isoproterenol. It counts as functional.
Target sequence in this assay (P07550 whole entry, looked up): as the sequence (P07550 whole entry) above
Data set [11] concerns the target T3, Beta-1 adrenergic receptor. The data set is described as follows: Agonistic efficacy at human beta 1 adrenergic receptor was assessed from adenylyl cyclase activation given as % of the maximum stimulation with isoproterenol at 10 uM. It counts as functional.
Target sequence in this assay (P08588 whole entry, looked up): as the sequence (P08588 whole entry) above
The target in data set [12] is T3, Beta-1 adrenergic receptor. The experiment in a line: biochemical.
Target sequence in this assay (P08588 whole entry): as above
Description: Binding affinity was evaluated on chinese hamster ovary (CHO) cells expressing the cloned human beta-1 adrenergic receptor in the presence of [125I]- iodocyanopindolol.
A short description of data set [13]: Volume distribution (Vdss) was measured in dog. It counts as ADME, organism-based, Canis lupus familiaris. Particulars: in vivo, read-out: Vdss.
In data set [14] the target is T2, Beta-3 adrenergic receptor. It counts as cell-based, CHO.
Target sequence in this assay (P13945 whole entry): as the sequence (P13945 whole entry) above
Data set [15] can be described thus: Oral bioavailability in rat (dose 10 mg/kg p.o. and 3 mg/kg i.v.). It counts as ADME, organism-based. Particulars: in vivo.
Data set [16] addresses T2, Beta-3 adrenergic receptor. The experiment in a line: Agonistic efficacy at human beta 3 adrenergic receptor as percent adenylyl cyclase activation relative to isoproterenol. It counts as functional.
Target sequence in this assay (P13945 whole entry, looked up): as the sequence (P13945 whole entry) above
Data set [17] can be described thus: Volume of distribution (Vdss) was measured in dog. It counts as ADME, organism-based, Canis lupus familiaris. Particulars: in vivo, read-out: Vdss.

As for `O=S(=O)(Nc1ccc(CCNC[C@H](O)c2cccnc2)cc1)c1ccc(-c2nc(-c3ccc(OC(F)(F)F)cc3)cs2)cc1`, the AUC was 3530 ng·h/mL in data set [1] and 6280 ng·h/mL in data set [5]. The bioavailability in [2] is 53%; in data set [15], 7%. In addition, in the data set with Monkey, it took a dose of 0.14 mg/kg to reach the 50% effect level (ED50). For the same compound, the results for the 50% effective concentration (EC50) in [3], in data set [4] and in [6] were 1400 nM, 4.3 nM and 2700 nM, respectively. Besides, in [7], the clearance came to 14.3 mL/min/kg. The IC50 is 1200 nM in data set [8], 8400 nM in data set [12] and 30 nM in data set [14]. Further, the half-life in data set [9] was 10.3 h. In addition, the ACT amounted to 18% in [10], 24% in [11] and 93% in [16]. Further, in [13], the Vd amounted to 12.8 L/kg.
For `O=S(=O)(Nc1ccc(CCNC[C@H](O)c2cccnc2)cc1)c1ccc(-c2nc(-c3cccc(F)c3F)cs2)cc1`, in data set [4], the EC50 stood at 7.6 nM. In addition, the values for the IC50 in data set [8] and in [12] were 760 nM and 2600 nM, respectively. The values for the ACT in data set [11] and in [16] were 6% and 99%, respectively.
In the same order, the values of `O=S(=O)(Nc1ccc(CCNC[C@H](O)c2cccnc2)cc1)c1ccc(-c2nc(-c3ccc(F)cc3F)cs2)cc1` are 19 nM, 2600 nM, 2500 nM, 7% and 87%.
The corresponding values for `O=S(=O)(Nc1ccc(CCNC[C@H](O)c2cccnc2)cc1)c1ccc(-c2nc(-c3cccc(C(F)(F)F)c3)cs2)cc1` are 6.9 nM, 980 nM, 1800 nM, 17% and 100%.
In the case of `O=S(=O)(Nc1ccc(CCNC[C@H](O)c2cccnc2)cc1)c1ccc(-c2nc(-c3ccc(F)c(F)c3)cs2)cc1`, the AUC in [1] was 1720 ng·h/mL; in data set [5] it was 2070 ng·h/mL. In addition, in data set [2], the bioavailability was found to be 36%. Besides, the results for the EC50 in data set [3], in data set [4] and in data set [6] were 1800 nM, 7.1 nM and 2600 nM, respectively. The clearance in data set [7] came out at 29.3 mL/min/kg. Moreover, the values for the IC50 in data set [8], in data set [12] and in data set [14] were 1700 nM, 1700 nM and 20 nM, respectively. Moreover, the half-life in [9] is 7.5 h. Also, the ACT in data set [10] came to 12%; in data set [16], 92%. The Vd in data set [17] came out at 19 L/kg.
As to `O=S(=O)(Nc1ccc(CCNC[C@H](O)c2cccnc2)cc1)c1ccc(-c2nc(-c3cc(F)c(F)c(F)c3)cs2)cc1`, the results for the AUC in data set [1] and in [5] were 2470 ng·h/mL and 2230 ng·h/mL, respectively. In [2], this compound came in with a bioavailability of 27%. The response in data set [4] was half-maximal at 6.3 nM (EC50). In addition, in data set [7], the clearance was found to be 20.5 mL/min/kg. Further, the values for the IC50 in [8] and in data set [12] were 5000 nM and 2000 nM, respectively. In data set [9], the half-life was 8 h. In addition, the ACT in data set [11] amounted to 20%; in data set [16] it was 100%. The Vd in [13] is 14.1 L/kg.
With `O=S(=O)(Nc1ccc(CCNC[C@H](O)c2cccnc2)cc1)c1ccc(-c2nc(-c3ccccc3C(F)(F)F)cs2)cc1`, the EC50 in data set [4] came out at 53 nM. Moreover, the IC50 in [8] was 1800 nM; in data set [12], 1900 nM. For the same compound, in data set [16], the ACT stood at 82%.
For `O=S(=O)(Nc1ccc(CCNC[C@H](O)c2cccnc2)cc1)c1ccc(-c2nc(-c3ccc(C(F)(F)F)cc3)cs2)cc1`, the AUC in data set [1] was 1930 ng·h/mL; in data set [5] it was 2270 ng·h/mL. Moreover, the bioavailability was determined as 38% in [2] and 17% in data set [15]. This compound displayed an ED50 in the data set with Monkey of 0.26 mg/kg. For the same compound, the EC50 stood at 2400 nM in data set [3] and 4800 nM in data set [6]. Besides, in data set [7], the clearance worked out at 26.8 mL/min/kg. The compound further gave a half-life in [9] of 13.5 h. Moreover, the results for the ACT in [11] and in data set [16] were 24% and 94%, respectively. Further, in data set [13], the Vd was found to be 31.3 L/kg. The compound also showed an IC50 in data set [14] of 46 nM.

Source of the values: ChEMBL document CHEMBL1133690, “Discovery of a potent, orally bioavailable beta(3) adrenergic receptor agonist, (R)-N-[4-[2-[[2-hydroxy-2-(3-pyridinyl)ethyl]amino]ethyl]phenyl]-4-[4 -[4-(trifluoromethyl)phenyl]thiazol-2-yl]benzenesulfonamide” (J Med Chem, 2000).
